≈ marks a conversion by molar mass, not a printed value. Where “and” joins values, the source holds several entries; their conditions need not be identical. Equal entries are not always repeated. Where two headings read alike, the source gives them in different places.
Columns and labels:
[1] = Stability in acidic environment at 25° C. (half-life of initial microbiological activity); assay type: physicochemical; conditions: aqueous solution, read-out: t 1/2 (converted)
Procedure: Stability in acidic environnment at 25° C. of the novel
Note: t 1/2 represents the time for reducing to one half the initial powe
of the antibiotic determined by microbiological method through diffusion
on a plate using the test stock Microccocus luteus (Sarcina lutea) ATCC

[2] = system: Acholeplasma laidlawii ATCC 23206 LRP 204; test: Bacteriostatic power in solid medium (MIC); assay type: cell-based; conditions: Acholeplasma laidlawii, ATCC23206, read-out: Minimum inhibiting concentration
In short: (§1)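 Reported figure: the lowest concentration that inhibits bacterial growth (bacteriostatic MIC). Organisms tested include aerobes and anaerobes of both Gram classes.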

[3] = system: Bacillus subtilis LRP 25; test: Bacteriostatic power in solid medium (MIC); assay type: cell-based; conditions: Bacillus subtilis, LRP25, read-out: Minimum inhibiting concentration
In short: as §1

[4] = system: Bacteroides fragilis ATCC 23745 LRP 205; test: Bacteriostatic power in solid medium (MIC); assay type: cell-based; conditions: Bacteroides fragilis, ATCC23745, read-out: Minimum inhibiting concentration
In short: as §1

[5] = system: Corynebacterium diphteriae LRP 24; test: Bacteriostatic power in solid medium (MIC); assay type: cell-based; conditions: Corynebacterium, LRP24, read-out: Minimum inhibiting concentration
In short: as §1

[6] = system: Escherichia coli LRP 50; test: Bacteriostatic power in solid medium (MIC); assay type: cell-based; conditions: Escherichia coli, LRP50, read-out: Minimum inhibiting concentration
In short: as §1

[7] = system: Fusobacteriumnecrophroum ATCC 27852 LRP 210; test: Bacteriostatic power in solid medium (MIC); assay type: cell-based; conditions: read-out: Minimum inhibiting concentration
In short: as §1

[8] = system: Haemophilus influenzae ATCC 19418 LRP 213; test: Bacteriostatic power in solid medium (MIC); assay type: cell-based; conditions: Haemophilus influenzae, ATCC19418, read-out: Minimum inhibiting concentration
In short: as §1

[9] = system: Klelsiella pneumoniae LRP 54; test: Bacteriostatic power in solid medium (MIC); assay type: cell-based; conditions: read-out: Minimum inhibiting concentration
In short: as §1

[10] = system: Micrococcus luteus ATCC 15957 LRP 193; test: Bacteriostatic power in solid medium (MIC); assay type: cell-based; conditions: Micrococcus luteus, ATCC15957, read-out: Minimum inhibiting concentration
In short: as §1

[11] = system: Micrococcus luteus ATCC 9341 LRP 6; test: Bacteriostatic power in solid medium (MIC); assay type: cell-based; conditions: Micrococcus luteus, ATCC9341, read-out: Minimum inhibiting concentration
In short: as §1

[12] = system: Mycoplasma hominis I ATCC 14027 LRP 211; test: Bacteriostatic power in solid medium (MIC); assay type: cell-based; conditions: Metamycoplasma hominis, ATCC14027, read-out: Minimum inhibiting concentration
In short: as §1

[13] = system: Neisseria gonorrhoeae ATCC 19424 LRP 214; test: Bacteriostatic power in solid medium (MIC); assay type: cell-based; conditions: Neisseria gonorrhoeae, ATCC19424, read-out: Minimum inhibiting concentration
In short: as §1

[14] = system: Proteus vulgaris ATCC 6380 LRP 13; test: Bacteriostatic power in solid medium (MIC); assay type: cell-based; conditions: Proteus vulgaris, ATCC6380, read-out: Minimum inhibiting concentration
In short: as §1

[15] = system: Pseudomonas aeruginosa LRP 9; test: Bacteriostatic power in solid medium (MIC); assay type: cell-based; conditions: Pseudomonas aeruginosa, LRP9, read-out: Minimum inhibiting concentration
In short: as §1

[16] = system: Shigella sonnei LRP 5; test: Bacteriostatic power in solid medium (MIC); assay type: cell-based; conditions: LRP5, read-out: Minimum inhibiting concentration
In short: as §1

[17] = system: Staphylococcus aureus ATCC 14154 LRP 78; test: Bacteriostatic power in solid medium (MIC); assay type: cell-based; conditions: Staphylococcus aureus, ATCC14154, read-out: Minimum inhibiting concentration
In short: as §1

[18] = system: Staphylococcus aureus ATCC 6538P LRP 14; test: Bacteriostatic power in solid medium (MIC); assay type: cell-based; conditions: Staphylococcus aureus, ATCC6538P, read-out: Minimum inhibiting concentration
In short: as §1

[19] = system: Staphylococcus aureus ATCC 6538P LRP 39; test: Bacteriostatic power in solid medium (MIC); assay type: cell-based; conditions: Staphylococcus aureus, ATCC6538P, read-out: Minimum inhibiting concentration
In short: as §1

[20] = system: Streptococcus faecalis LRP 7; test: Bacteriostatic power in solid medium (MIC); assay type: cell-based; conditions: Enterococcus faecalis, LRP7, read-out: Minimum inhibiting concentration
In short: as §1

[21] = system: Streptococcus faecalis subsp. zymogenes ATCC 12958 LRP 61; test: Bacteriostatic power in solid medium (MIC); assay type: cell-based; conditions: Enterococcus faecalis, ATCC12958, read-out: Minimum inhibiting concentration
In short: as §1

[22] = system: Streptococcus pneumoniae ATCC 6303 LRP 35; test: Bacteriostatic power in solid medium (MIC); assay type: cell-based; conditions: Streptococcus pneumoniae, ATCC6303, read-out: Minimum inhibiting concentration
In short: as §1

[23] = system: Streptococcus pneumoniae ATCC 6303 LRP 52; test: Bacteriostatic power in solid medium (MIC); assay type: cell-based; conditions: Streptococcus pneumoniae, ATCC6303, read-out: Minimum inhibiting concentration
In short: as §1

[24] = system: Streptococcus pneumoniae ATCC 6303 LRP 53; test: Bacteriostatic power in solid medium (MIC); assay type: cell-based; conditions: Streptococcus pneumoniae, ATCC6303, read-out: Minimum inhibiting concentration
In short: as §1

[25] = system: Streptococcus pyogenes ATCC 8668 LRP 197; test: Bacteriostatic power in solid medium (MIC); assay type: cell-based; conditions: Streptococcus pyogenes, ATCC8668, read-out: Minimum inhibiting concentration
In short: as §1

[26] = system: Streptococcus pyogenes ATCC 8668 LRP 34; test: Bacteriostatic power in solid medium (MIC); assay type: cell-based; conditions: Streptococcus pyogenes, ATCC8668, read-out: Minimum inhibiting concentration
In short: as §1

[27] = system: Clostridium perfrigens ATCC 3624 LRP 206; test: microbe, parasite or virus in culture; assay type: cell-based; conditions: ATCC3624, read-out: Minimum inhibiting concentration
In short: as §1

[28] = system: Salmonella typhy LRP 8; test: microbe, parasite or virus in culture; assay type: cell-based; conditions: LRP8, solid medium, read-out: Minimum inhibiting concentration
In short: as §1

[29] = system: Corynebacterium diphteriae LRP 24; test: Bacteriostatic power in liquid medium (MIC); assay type: cell-based; conditions: Corynebacterium, LRP24, read-out: Minimum inhibiting concentration
In short: as §1

[30] = system: Streptococcus faecalis subs. zymogenes ATCC 12958 LRP 61; test: Bacteriostatic power in liquid medium (MIC); assay type: cell-based; conditions: Enterococcus faecalis, ATCC12958, read-out: Minimum inhibiting concentration
In short: as §1

[31] = system: Streptococcus pneumoniae ATCC 6303 LRP 35; test: Bacteriostatic power in liquid medium (MIC); assay type: cell-based; conditions: Streptococcus pneumoniae, ATCC6303, read-out: Minimum inhibiting concentration
In short: as §1

[32] = system: Streptococcus pyogenes ATCC 8668 LRP 34; test: Bacteriostatic power in liquid medium (MIC); assay type: cell-based; conditions: Streptococcus pyogenes, ATCC8668, read-out: Minimum inhibiting concentration
In short: as §1

[33] = Serum concentrations in the rat after oral administration; assay type: in vivo; conditions: 100 mg/kg per os
Procedure: administration of 100 mg/kg per os. The values, at the
several sampling times, correspond to mcg of product per ml of serum*.

CC[C@H]1OC(=O)[C@H](C)[C@@H](O[C@H]2C[C@@](C)(OC)[C@@H](O)[C@H](C)O2)[C@H](C)[C@@H](O[C@@H]2O[C@H](C)C[C@H](N(C)C)[C@H]2O)[C@](C)(O)C[C@](C)(F)C(=O)[C@H](C)[C@@H](O)[C@]1(C)O [P-80206, (8S)-8-fluoroerythromycin A]
half-life ([1]; pH 2.0, 25° C.): 9 h | half-life ([1]; pH 3.0, 25° C.): 82.5 h | MIC [2]: 0.097 µg/mL (≈ 0.129 µM) | MIC [3]: 0.049 µg/mL (≈ 0.0652 µM) | MIC [4]: 0.195 µg/mL (≈ 0.259 µM) | MIC [5]: 0.012 µg/mL (≈ 0.016 µM) | MIC [6]: 12.5 µg/mL (≈ 16.6 µM) | MIC [7]: 1.56 µg/mL (≈ 2.07 µM) | MIC [8]: 3.12 µg/mL (≈ 4.15 µM) | MIC [9]: 12.5 µg/mL (≈ 16.6 µM) | MIC [10]: 25 µg/mL (≈ 33.2 µM) | MIC [11]: 0.006 µg/mL (≈ 0.00798 µM) | MIC [12]: 25 µg/mL (≈ 33.2 µM) | MIC [13]: 0.049 µg/mL (≈ 0.0652 µM) | MIC [14]: 25 µg/mL (≈ 33.2 µM) | MIC [15]: 25 µg/mL (≈ 33.2 µM) | MIC [16]: 25 µg/mL (≈ 33.2 µM) | MIC [17]: 25 µg/mL (≈ 33.2 µM) | MIC [18]: 0.097 µg/mL (≈ 0.129 µM) | MIC [19]: 0.097 µg/mL (≈ 0.129 µM) | MIC [20]: 0.195 µg/mL (≈ 0.259 µM) | MIC [21]: 0.195 µg/mL (≈ 0.259 µM) | MIC [22]: 0.024 µg/mL (≈ 0.0319 µM) | MIC [23]: 0.024 µg/mL (≈ 0.0319 µM) | MIC [24]: 0.024 µg/mL (≈ 0.0319 µM) | MIC [25]: 0.012 µg/mL (≈ 0.016 µM) | MIC [26]: 0.012 µg/mL (≈ 0.016 µM) | MIC [27]: 0.78 µg/mL (≈ 1.04 µM) | MIC [28]: 12.5 µg/mL (≈ 16.6 µM) | MIC [29]: 0.012 µg/mL (≈ 0.016 µM) | MIC [30]: 0.39 µg/mL (≈ 0.519 µM) | MIC [31]: 0.049 µg/mL (≈ 0.0652 µM) | MIC [32]: 0.097 µg/mL (≈ 0.129 µM) | Serum concentration, individual rat ([33]; 0.5 hours, 30 min): 0.078 mcg of product per ml of serum and 0.198 mcg of product per ml of serum and 0.630 mcg of product per ml of serum and 0.487 mcg of product per ml of serum and 1.105 mcg of product per ml of serum and 1.333 mcg of product per ml of serum | Serum concentration, individual rat ([33]; 1 hour, 60 min): 8.505 mcg of product per ml of serum and 0.880 mcg of product per ml of serum and 1.273 mcg of product per ml of serum and 1.251 mcg of product per ml of serum and 1.714 mcg of product per ml of serum and 0.531 mcg of product per ml of serum | Serum concentration, individual rat ([33]; 2 hours, 120 min): 3.712 mcg of product per ml of serum and 6.516 mcg of product per ml of serum and 3.510 mcg of product per ml of serum and 6.907 mcg of product per ml of serum and 6.601 mcg of product per ml of serum and 7.195 mcg of product per ml of serum | Serum concentration, individual rat ([33]; 4 hours, 240 min): 1.792 mcg of product per ml of serum and 2.134 mcg of product per ml of serum and 1.270 mcg of product per ml of serum and 2.817 mcg of product per ml of serum and 2.362 mcg of product per ml of serum and 2.115 mcg of product per ml of serum | Serum concentration, individual rat ([33]; 6 hours, 360 min): 0.867 mcg of product per ml of serum and 0.393 mcg of product per ml of serum and 1.192 mcg of product per ml of serum and 1.792 mcg of product per ml of serum and 1.620 mcg of product per ml of serum and 1.147 mcg of product per ml of serum | concentration at 0.5 h ([33]; rat, in vivo, po, 100 mg/kg, 0.5 hours, read-out: Serum concentration, average): 638 ng/mL | concentration at 1 h ([33]; rat, in vivo, po, 100 mg/kg, 1 hour, read-out: Serum concentration, average): 2360 ng/mL | concentration at 2 h ([33]; rat, in vivo, po, 100 mg/kg, 2 hours): 5740 ng/mL | concentration at 4 h ([33]; rat, in vivo, po, 100 mg/kg, 4 hours, read-out: Serum concentration, average): 2080 ng/mL | concentration at 6 h ([33]; rat, in vivo, po, 100 mg/kg, 6 hours, read-out: Serum concentration, average): 1170 ng/mL
